Data: ChEMBL document CHEMBL4000252, “Discovery of N-(2-aminoethyl)-N-benzyloxyphenyl benzamides: New potent Trypanosoma brucei inhibitors” (Bioorg Med Chem, 2017)
Active and inactive are the calls of the source. The calls are words filed in the database; no cut-off is given here.

Assays:
[1] = test system: Trypanosoma brucei brucei; experiment: Antiparasitic activity against Trypanosoma brucei brucei BF427 assessed as growth inhibition after 48 hrs by Alamar blue assay; format: functional; details: BF427, 48 h
[2] = Cytotoxicity against human CRL8155 cells assessed as growth inhibition after 48 hrs by Alamar blue assay; format: cell-based; details: crl8155, 48 h
HepG2 = experiment: Cytotoxicity against human HepG2 cells assessed as growth inhibition after 48 hrs by Alamar blue assay; format: cell-based; details: hepg2, 48 h
[3] = test system: Trypanosoma brucei rhodesiense; experiment: Antiparasitic activity against Trypanosoma brucei rhodesiense STIB900 assessed as growth inhibition after 48 hrs by Alamar blue assay; format: functional; details: STIB900, 48 h
Cytochrome P450 3A4 = Cytochrome P450 3A4 (Homo sapiens, UniProt P08684); experiment: Inhibition of human CYP3A4; format: ADME
Liver = experiment: Half life in human liver microsomes at 1.5 uM by LC-MS analysis; format: ADME, microsome
[4] = Ratio of drug level in brain to plasma in mouse at 5 mg/kg, ip after 1 hr by LC-MS analysis; format: ADME, organism-based
[5] = Cmax in mouse at 50 mg/kg, po by LC-MS analysis; format: ADME, organism-based; design: dose 50 mg/kg, route oral; details: in vivo
[6] = AUC (0 to 8 hrs) in mouse at 50 mg/kg, po by LC-MS analysis; format: ADME, organism-based; design: dose 50 mg/kg, time < 8 hr, route oral; details: in vivo
[7] = test system: Trypanosoma brucei rhodesiense; experiment: Antiparasitic activity against Trypanosoma brucei rhodesiense STIB900 infected in Swiss-Webster mouse assessed as cure rate at 50 mg/kg, bid administered via oral gavage from day 2 to 5 post infection measured after 60 days by microscopic method relative to control; format: functional
[8] = test system: Trypanosoma brucei rhodesiense; experiment: Antiparasitic activity against Trypanosoma brucei rhodesiense STIB900 infected in Swiss-Webster mouse assessed as parasitemia rebound time at 50 mg/kg, bid administered via oral gavage from day 2 to 5 post infection by microscopic method; format: functional
[9] = test system: Trypanosoma brucei brucei; experiment: Antiparasitic activity against Trypanosoma brucei brucei TREU667 infected in mouse assessed as decrease in parasitemia at 50 mg/kg, bid administered via oral gavage on day 21 to 34 post infection measured on day 34 by microscopic method; format: functional, organism-based
[10] = test system: Trypanosoma brucei brucei; experiment: Antiparasitic activity against Trypanosoma brucei brucei TREU667 infected in mouse assessed as decrease in parasitemia at 50 mg/kg, bid administered via oral gavage on day 21 to 34 post infection measured on day 35 by microscopic method; format: functional, organism-based
[11] = test system: Trypanosoma brucei brucei; experiment: Antiparasitic activity against Trypanosoma brucei brucei TREU667 infected in mouse assessed as decrease in parasitemia at 50 mg/kg, bid administered via oral gavage on day 21 to 34 post infection measured on day 36 by microscopic method; format: functional, organism-based
[12] = test system: Trypanosoma brucei brucei; experiment: Antiparasitic activity against Trypanosoma brucei brucei TREU667 infected in mouse assessed as decrease in parasitemia at 50 mg/kg, bid administered via oral gavage on day 21 to 34 post infection measured on day 40 by microscopic method; format: functional, organism-based

Sequence of Cytochrome P450 3A4 (P08684 whole entry): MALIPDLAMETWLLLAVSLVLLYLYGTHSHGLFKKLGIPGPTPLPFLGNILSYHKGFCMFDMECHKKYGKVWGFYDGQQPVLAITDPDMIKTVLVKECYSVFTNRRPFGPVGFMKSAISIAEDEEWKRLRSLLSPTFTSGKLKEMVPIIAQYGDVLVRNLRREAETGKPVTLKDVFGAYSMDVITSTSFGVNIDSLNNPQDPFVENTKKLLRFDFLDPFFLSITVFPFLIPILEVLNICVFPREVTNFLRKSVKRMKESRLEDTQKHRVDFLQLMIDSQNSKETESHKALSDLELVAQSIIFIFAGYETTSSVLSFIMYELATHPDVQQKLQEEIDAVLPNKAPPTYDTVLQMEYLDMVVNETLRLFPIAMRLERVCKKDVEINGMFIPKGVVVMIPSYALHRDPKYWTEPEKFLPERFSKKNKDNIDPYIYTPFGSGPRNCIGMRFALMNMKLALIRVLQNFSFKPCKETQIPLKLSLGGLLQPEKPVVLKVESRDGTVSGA

- EC50 [1]: 1 nM
- EC50 [3]: 2 nM
- IC50 (Cytochrome P450 3A4): 144 nM
- t1/2 (Liver): > 1 h
- BPR [4]: 0.23
- Cmax [5]: 1000 nM
- AUC(0-t) at 8 h [6]: 5.58 µM·h
SMILES: CC(C)c1ccc(COc2ccc(N(CCN)C(=O)c3cccnc3C(F)(F)F)cc2)cc1.Cl
- CC50 [2]: 2030 nM
- CC50 (HepG2): 3830 nM
- Activity [7]: 67 - 80%
- Time [8]: 31 days
- Activity [9]: Active
- Activity [10]: Active
- Activity [11]: Active
- Activity [12]: inactive
